Test results published in patent publication US20170056559A1, “Active Agent-Particle Combination Supporting Bone Regeneration” (ECOLE POLYTECHNIQUE FEDERALE DE LAUSANNE (EPFL), priority 2014, published 2017).

How the values were obtained:
[1] = system: RAW 264.7 murine macrophages; assay: Cell proliferation assay with RAW 264.7 macrophages (CellTiter 96 AQueous One Solution); format: cell-based; settings: Zoledronate concentrations from 0.16 to 40 μM
Method: An aqueous Zoledronate solution with a concentration of 2 mg/ml was prepared and sterile filtered. The drug solution was diluted with CCM to a final concentration of 80 μM of Zoledronate. A further dilution with CCM gave Zoledronate supplemented medium (Zol-CCM) with concentrations of 80 μM, 40 μM, 20 μM, 10 μM, 5 μM, 2.5 μM and 1.25 μM. The dilution procedure was repeated with an aqueous dispersion containing 2 mg/ml Zoledronate and 20 mg/ml nHA (nHA-Zol-CCM). The macrophages were seeded with a density of 2500 cell per well in 96-well plates (Microtest™ 96, Becton Dickinson Labware, NJ, USA) and incubated with 100 μl CCM at standard incubation conditions (37° C., 5% CO2). After 24 h of incubation, 100 μl of CCM, Zol-CCM or nHA-Zol-CCM were added to the cells, the final Zoledronate concentrations in the CCM were therefore 40 μM, 20 μM, 10 μM, 5 μM, 2.5 μM, 1.25 μM and 0.625 μM. A cell proliferation assay (CellTiter 96® AQueous One Solution, Promega, Wis., USA) was performed after 24, 48 and 72 hours of cell exposure to the modified CCM. The absorbance was measured with a plate reader (Wallac 1420 Victor 2, Perkin Elmer, Waltham, Mass., USA). Background plates with only the modified media were measured at all time points to avoid a bias due to the nHA particles in the dispersions.

[2] = system: rat femoral model of postmenopausal osteoporosis; assay: In vivo microCT static and dynamic histomorphometry around femoral screws in ovariectomized rats
Method: The in vivo study in a rat femoral model of postmenopausal osteoporosis was performed following a well-established protocol. All animal procedures were approved by the local animal care and use committee (license no. 2508.1, EXPANIM, SCAV, Epalinges, Switzerland).
Eight virgin female Wistar rats (Janvier Labs, Saint-Berthevin, France) were ovariectomized bilaterally with a dorsal approach at an age of 17 weeks and a weight of 295±18 g to induce an estrogen deficiency related bone loss. The rats were housed 4 per cage under 12 h light to 12 h dark cycles at 22° C. room temperature with 55% humidity. They were fed with a standard rodent diet (KLIBA NAFAG 3436, Provimi Kliba AG, Switzerland) and tab water at libitum. […]
In vivo microCT scans (Skyscan 1076, Bruker microCT, Kontich, Belgium) of the right femur only were performed one day before OVX and one day before screw implantation in order to confirm the bone loss caused by the estrogen deficiency. […] The image taken for the evaluation of the bone loss and for dynamic histomorphometry were processed and analyzed using the softwares Amira® (FEI Vizualisation Sciences Group, Burlington, USA) and CTan (Bruker microCT, Kontich, Belgium). […] For an analysis of the spatio-temporal effect, the static and dynamic bone parameters were analyzed in 4 layers of 368 μm each around the screw. […]

peri-implant bone = settings: Zoledronate locally delivered from a hyaluronic acid hydrogel; cited from earlier work

O=P(O)(O)C(O)(Cn1ccnc1)P(=O)(O)O [Zoledronate]
cell proliferation [1]: dose-depended proliferation decrease | bone resorption/demineralization peak ([2]; between days 10 and 31, locally delivered): completely inhibited | resorption of bone and degradation of the biomaterial ([2]; later during the study): efficiently inhibited the resorption of present and newly formed bone | increase of early bone formation rate (peri-implant bone): up to 100% | peri-implant bone resorption (peri-implant bone): efficiently inhibiting peri-implant bone resorption
